Reference: patent US4410516A, “1-N(αHydroxy-ω-aminoalkanoyl) derivatives of 5,3',4'-trideoxy- or 5,3', 4'-trideoxy-6'-N- methyl- or 5, 3', 4',6"-tetradeoxykannamyci B and production thereof” (Zaidan Hojin Biseibutsu Kagaku Kenkyu Kai, priority 1981, dated 1983)
Converted amounts (≈) assume the structure as drawn. Read-outs that look alike come from different tables or passages of the source.

Legend:
Assay type in all cases: cell-based
[1] = system: Staphylococcus aureus 209P; test: Minimum inhibitory concentration, serial dilution on nutrient agar; conditions: 37° C., 18 hours incubation
[2] = system: Staphylococcus aureus AP01; test: as above; conditions: 37° C., 18 hours incubation
[3] = system: Bacillus subtilis NRRL B-558; test: as above; conditions: NRRLB558, 37° C., 18 hours incubation
Escherichia coli NIHJ = test: as above
Escherichia coli K-12 = test: as above
Escherichia coli K-12 R5 = test: as above; conditions: K12R5, 18 h
[4] = system: Escherichia coli K-12 R 388; test: as above; conditions: K12R388, 18 h
[5] = system: Escherichia coli K-12 ML 1410; test: as above
[6] = system: Escherichia coli K-12 LA 290 R55; test: as above; conditions: K12LA290R55, 18 h
[7] = system: Escherichia coli K-12 LA 290 R56; test: as above; conditions: K12LA290R56, 18 h
[8] = system: Escherichia coli JR66/W677; test: as above
Proteus vulgaris OX19 = test: as above; conditions: 37° C., 18 hours incubation
Proteus rettgeri GN311 = test: as above; conditions: Providencia rettgeri, 37° C., 18 hours incubation
Serratia marcescens = test: as above; conditions: 37° C., 18 hours incubation
Serratia SOU = test: as above; conditions: 37° C., 18 hours incubation
Providencia 2991 = test: as above; conditions: 37° C., 18 hours incubation
[9] = system: Pseudomonas aeruginosa A3; test: as above; conditions: 37° C., 18 hours incubation
[10] = system: Pseudomonas aeruginosa TI-13; test: as above
[11] = system: Pseudomonas aeruginosa GN315; test: as above
[12] = system: Pseudomonas aeruginosa 99; test: as above
[13] = system: Pseudomonas aeruginosa B-13; test: as above; conditions: B13, 37° C., 18 hours incubation
[14] = system: Pseudomonas aeruginosa 21-75; test: as above; conditions: 2175, 37° C., 18 hours incubation
[15] = system: Pseudomonas aeruginosa PST1; test: as above
[16] = system: Pseudomonas aeruginosa ROS134/PU21; test: as above; conditions: ROS134/PU21, 18 h
[17] = system: Pseudomonas maltophilia GN907; test: as above; conditions: Stenotrophomonas maltophilia, 37° C., 18 hours incubation
bacteria = test: Antibacterial activity (stated in words)
[18] = system: Escherichia coli K-12 ML 1410 R81; test: Minimum inhibitory concentration, serial dilution on nutrient agar; conditions: 18 h
[19] = nutrient agar, 37° C., 18 hours incubation, read-out: MIC
[20] = K12, nutrient agar, 37° C., 18 hours incubation, read-out: MIC
[21] = JR66/W677, nutrient agar, 37° C., 18 hours incubation, read-out: MIC
[22] = GN315, nutrient agar, 37° C., 18 hours incubation, read-out: MIC
[23] = Pseudomonas aeruginosa, 99, nutrient agar, 37° C., 18 hours incubation, read-out: MIC
[24] = PST1, nutrient agar, 37° C., 18 hours incubation, read-out: MIC

Compound	MIC [1] [µg/mL]	MIC [2] [µg/mL]	MIC [3] [µg/mL]	MIC (Escherichia coli NIHJ; [19]) [µg/mL]	MIC (Escherichia coli K-12; [20]) [µg/mL]	MIC (Escherichia coli K-12 R5) [µg/mL]	MIC [4] [µg/mL]	MIC ([5]; K12ML1410, 18 h) [µg/mL]	MIC [6] [µg/mL]	MIC [7] [µg/mL]	MIC (Proteus vulgaris OX19) [µg/mL]	MIC (Proteus rettgeri GN311) [µg/mL]	MIC (Serratia marcescens) [µg/mL]	MIC (Serratia SOU) [µg/mL]	MIC (Providencia 2991) [µg/mL]	MIC [9] [µg/mL]	MIC [13] [µg/mL]	MIC [14] [µg/mL]	MIC [16] [µg/mL]	MIC [17] [µg/mL]	further results
C[C@H]1O[C@H](O[C@@H]2C[C@H](O[C@H]3O[C@H](CN)CC[C@H]3N)[C@@H](N)C[C@H]2N)[C@H](O)[C@@H](N)[C@@H]1O [TetradeoxyKMB, 5,3',4',6"-tetradeoxykanamycin B]	3.13 (≈ 7.46 µM)	6.25 (≈ 14.9 µM)	< 0.2	6.25 (≈ 14.9 µM)	25 (≈ 59.6 µM)	> 100	3.13 (≈ 7.46 µM)	12.5 (≈ 29.8 µM)	> 100	100 (≈ 238 µM)	1.56 (≈ 3.72 µM)	> 100	100 (≈ 238 µM)	> 100	> 100	3.13 (≈ 7.46 µM)	50 (≈ 119 µM)	> 100	> 100	> 100	MIC [8, 21]: > 100 µg/mL; MIC ([10]; TI13, 18 h): 12.5 µg/mL (≈ 29.8 µM); MIC [11, 22]: > 100 µg/mL; MIC [12, 23]: 25 µg/mL (≈ 59.6 µM); MIC [15, 24]: > 100 µg/mL; antibacterial activity (bacteria): significantly active against some kinds of bacteria
CNC[C@@H]1CC[C@@H](N)[C@@H](O[C@H]2C[C@@H](O[C@H]3O[C@H](CO)[C@@H](O)[C@H](N)[C@H]3O)[C@H](NC(=O)[C@@H](O)CCN)C[C@@H]2N)O1 [AHB-trideoxyMKMB, 1-N-[(S)-4-amino-2-hydroxybutyryl]-5,3',4'-trideoxy-6'-N-methylkanamycin B]	< 0.2	0.39 (≈ 0.708 µM)	< 0.2	0.78 (≈ 1.42 µM)	0.78 (≈ 1.42 µM)	3.13 (≈ 5.68 µM)	0.39 (≈ 0.708 µM)	1.56 (≈ 2.83 µM)	1.56 (≈ 2.83 µM)	0.78 (≈ 1.42 µM)	< 0.2	50 (≈ 90.8 µM)	6.25 (≈ 11.4 µM)	25 (≈ 45.4 µM)	12.5 (≈ 22.7 µM)		12.5 (≈ 22.7 µM)	12.5 (≈ 22.7 µM)	50 (≈ 90.8 µM)	> 100	MIC [18]: 1.56 µg/mL (≈ 2.83 µM); MIC ([8]; JR66/W677, 18 h): 1.56 µg/mL (≈ 2.83 µM); MIC ([10]; TI13, 18 h): 1.56 µg/mL (≈ 2.83 µM); MIC ([11]; GN315, 18 h): 3.13 µg/mL (≈ 5.68 µM); MIC ([12]; Pseudomonas aeruginosa, 99, 18 h): 3.13 µg/mL (≈ 5.68 µM); MIC [15, 24]: 12.5 µg/mL (≈ 22.7 µM)
NCC(O)C(=O)N[C@@H]1C[C@H](N)[C@@H](O[C@H]2O[C@H](CN)CC[C@H]2N)C[C@H]1O[C@H]1O[C@H](CO)[C@@H](O)[C@H](N)[C@H]1O (stereo partly drawn) [AHP-trideoxyKMB, 1-N-[(RS)-3-amino-2-hydroxypropionyl]-5,3',4'-trideoxykanamycin B]	< 0.2	0.78 (≈ 1.49 µM)	< 0.2	1.56 (≈ 2.99 µM)	1.56 (≈ 2.99 µM)	100 (≈ 191 µM)	1.56 (≈ 2.99 µM)		3.13 (≈ 5.99 µM)	1.56 (≈ 2.99 µM)	0.78 (≈ 1.49 µM)	25 (≈ 47.8 µM)	25 (≈ 47.8 µM)	> 100	25 (≈ 47.8 µM)	0.78 (≈ 1.49 µM)	12.5 (≈ 23.9 µM)	12.5 (≈ 23.9 µM)	> 100	> 100	MIC ([5]; K12ML1410, nutrient agar, 37° C., 18 hours incubation, read-out: MIC): 1.56 µg/mL (≈ 2.99 µM); MIC [8, 21]: 3.13 µg/mL (≈ 5.99 µM); MIC ([10]; TI13, nutrient agar, 37° C., 18 hours incubation, read-out: MIC): 3.13 µg/mL (≈ 5.99 µM); MIC [11, 22]: 50 µg/mL (≈ 95.7 µM); MIC [12, 23]: 3.13 µg/mL (≈ 5.99 µM); MIC ([15]; PST1, 18 h): 6.25 µg/mL (≈ 12 µM)
CNC[C@@H]1CC[C@@H](N)[C@@H](O[C@H]2C[C@@H](O[C@H]3O[C@H](CO)[C@@H](O)[C@H](N)[C@H]3O)[C@H](NC(=O)C(O)CN)C[C@@H]2N)O1 (stereo partly drawn) [AHP-trideoxyMKMB, 1-N-[(RS)-3-amino-2-hydroxypropionyl]-5,3',4'-trideoxy-6'-N-methylkanamycin B]	0.39 (≈ 0.727 µM)	< 0.2	0.39 (≈ 0.727 µM)			12.5 (≈ 23.3 µM)	1.56 (≈ 2.91 µM)	3.13 (≈ 5.83 µM)	6.25 (≈ 11.6 µM)	3.13 (≈ 5.83 µM)	0.78 (≈ 1.45 µM)	25 (≈ 46.6 µM)	12.5 (≈ 23.3 µM)	50 (≈ 93.2 µM)	50 (≈ 93.2 µM)	0.78 (≈ 1.45 µM)	25 (≈ 46.6 µM)	25 (≈ 46.6 µM)	50 (≈ 93.2 µM)	> 100	MIC (Escherichia coli NIHJ; 18 h): 3.13 µg/mL (≈ 5.83 µM); MIC (Escherichia coli K-12; K12, 18 h): 3.13 µg/mL (≈ 5.83 µM); MIC [18]: 3.13 µg/mL (≈ 5.83 µM); MIC ([8]; JR66/W677, 18 h): 6.25 µg/mL (≈ 11.6 µM); MIC ([10]; TI13, 18 h): 3.13 µg/mL (≈ 5.83 µM); MIC ([11]; GN315, 18 h): 3.13 µg/mL (≈ 5.83 µM); MIC [12, 23]: 12.5 µg/mL (≈ 23.3 µM); MIC [15, 24]: 25 µg/mL (≈ 46.6 µM)
